In ChEMBL document CHEMBL3045936, “Synthesis of new piperidyl indanone derivatives as anticonvulsant agents” (Med Chem Res, 2012):
Calls of active or inactive are those of the source. The calls are words filed in the database; no cut-off is given here.

System: not listed separately
Assay: Lipophilicity, log P of the compound
Type: physicochemical
Conditions: octanol/water

Compound	logP
COc1cc2c(cc1OC)C(=O)C(CC1CCN(C(=S)Nc3ccc([N+](=O)[O-])cc3)CC1)C2 (stereo not drawn)	4.58
COc1cc2c(cc1OC)C(=O)C(CC1CCN(C(=S)Nc3ccc(C)cc3)CC1)C2 (stereo not drawn)	4.58
COc1cc2c(cc1OC)C(=O)C(CC1CCN(C(=S)Nc3ccc(Cl)cc3)CC1)C2 (stereo not drawn)	5.11

System: Rattus norvegicus
Assay: Anticonvulsant activity in Rattus norvegicus Wistar (rat) assessed as increase in GABA level in cerebellum region measured per 100 mg of tissue at 100 mg/kg, ip after 2 hr (reference value: 25.27 +/- 0.57 ug)
Type: functional
Conditions: route intraperitoneal

Compound	Activity
COc1cc2c(cc1OC)C(=O)C(CC1CCN(C(=S)Nc3ccc([N+](=O)[O-])cc3)CC1)C2 (stereo not drawn)	28.06 µg
COc1cc2c(cc1OC)C(=O)C(CC1CCN(C(=S)Nc3ccc(C)cc3)CC1)C2 (stereo not drawn)	31.83 µg
COc1cc2c(cc1OC)C(=O)C(CC1CCN(C(=S)Nc3ccc(Cl)cc3)CC1)C2 (stereo not drawn)	27.66 µg

System: Rattus norvegicus
Assay: Anticonvulsant activity in Rattus norvegicus Wistar (rat) assessed as increase in GABA level in medulla oblongata region measured per 100 mg of tissue at 100 mg/kg, ip after 2 hr (reference value: 40.57 +/- 0.2 ug)
Type: functional
Conditions: route intraperitoneal

Compound	Activity
COc1cc2c(cc1OC)C(=O)C(CC1CCN(C(=S)Nc3ccc([N+](=O)[O-])cc3)CC1)C2 (stereo not drawn)	35.13 µg
COc1cc2c(cc1OC)C(=O)C(CC1CCN(C(=S)Nc3ccc(C)cc3)CC1)C2 (stereo not drawn)	49.82 µg
COc1cc2c(cc1OC)C(=O)C(CC1CCN(C(=S)Nc3ccc(Cl)cc3)CC1)C2 (stereo not drawn)	40.75 µg

System: Rattus norvegicus
Assay: Anticonvulsant activity in Rattus norvegicus Wistar (rat) assessed as increase in GABA level in mid brain region measured per 100 mg of tissue at 100 mg/kg, ip after 2 hr (reference value: 44.38 +/- 0.219 ug)
Type: functional
Conditions: route intraperitoneal

Compound	Activity
COc1cc2c(cc1OC)C(=O)C(CC1CCN(C(=S)Nc3ccc([N+](=O)[O-])cc3)CC1)C2 (stereo not drawn)	59.33 µg
COc1cc2c(cc1OC)C(=O)C(CC1CCN(C(=S)Nc3ccc(C)cc3)CC1)C2 (stereo not drawn)	61.05 µg
COc1cc2c(cc1OC)C(=O)C(CC1CCN(C(=S)Nc3ccc(Cl)cc3)CC1)C2 (stereo not drawn)	44.81 µg

System: Rattus norvegicus
Assay: Anticonvulsant activity in Rattus norvegicus Wistar (rat) assessed as increase in GABA level in olfactory lob region measured per 100 mg of tissue at 100 mg/kg, ip after 2 hr (reference value: 13.22 +/- 0.03 ug)
Type: functional
Conditions: route intraperitoneal

Compound	Activity
COc1cc2c(cc1OC)C(=O)C(CC1CCN(C(=S)Nc3ccc([N+](=O)[O-])cc3)CC1)C2 (stereo not drawn)	15.71 µg
COc1cc2c(cc1OC)C(=O)C(CC1CCN(C(=S)Nc3ccc(C)cc3)CC1)C2 (stereo not drawn)	15.62 µg
COc1cc2c(cc1OC)C(=O)C(CC1CCN(C(=S)Nc3ccc(Cl)cc3)CC1)C2 (stereo not drawn)	13.47 µg

System: Mus musculus
Assay: Neurotoxicity in Mus musculus Swiss albino (mouse) assessed as potentiation of ethanol-mediated effect at 100 to 300 mg/kg, ip administered 1 hr followed by ethanol challenge
Type: toxicity, organism-based
Parameters: dose 100-300 mg/kg, route intraperitoneal
Conditions: in vivo

Compound	Activity
COc1cc2c(cc1OC)C(=O)C(CC1CCN(C(=S)Nc3ccc([N+](=O)[O-])cc3)CC1)C2 (stereo not drawn)	Non-toxic
COc1cc2c(cc1OC)C(=O)C(CC1CCN(C(=S)Nc3ccccc3Cl)CC1)C2 (stereo not drawn)	Toxic
CCCCNC(=S)N1CCC(CC2Cc3cc(OC)c(OC)cc3C2=O)CC1 (stereo not drawn)	Non-toxic
CCCNC(=S)N1CCC(CC2Cc3cc(OC)c(OC)cc3C2=O)CC1 (stereo not drawn)	Non-toxic
COc1cc2c(cc1OC)C(=O)C(CC1CCN(C(=S)Nc3ccc(Cl)cc3)CC1)C2 (stereo not drawn)	Non-toxic
COc1cc2c(cc1OC)C(=O)C(CC1CCN(C(=S)Nc3ccccc3C)CC1)C2 (stereo not drawn)	Non-toxic

System: Mus musculus
Assay: Neurotoxicity in Mus musculus Swiss albino (mouse) assessed as minimal motor impairment at 300 mg/kg, ip after 4 hr by rotorod test
Type: toxicity, organism-based
Parameters: dose 300 mg/kg, route intraperitoneal
Conditions: in vivo

Compound	Activity
COc1cc2c(cc1OC)C(=O)C(CC1CCN(C(=S)Nc3ccc([N+](=O)[O-])cc3)CC1)C2 (stereo not drawn)	Non-toxic
COc1cc2c(cc1OC)C(=O)C(CC1CCN(C(=S)Nc3ccccc3Cl)CC1)C2 (stereo not drawn)	Non-toxic
COc1cc2c(cc1OC)C(=O)C(CC1CCN(C(=S)Nc3ccc(C)cc3)CC1)C2 (stereo not drawn)	Non-toxic
CCCNC(=S)N1CCC(CC2Cc3cc(OC)c(OC)cc3C2=O)CC1 (stereo not drawn)	Non-toxic

System: Mus musculus
Assay: Anticonvulsant activity in Mus musculus Swiss albino (mouse) assessed as protection against subcutaneous pentylenetetrazole-induced seizures at 300 mg/kg, ip after 4 hr
Type: functional, organism-based
Parameters: dose 300 mg/kg
Conditions: not given

Compound	Activity
COc1cc2c(cc1OC)C(=O)C(CC1CCN(C(=S)Nc3ccc([N+](=O)[O-])cc3)CC1)C2 (stereo not drawn)	inactive
COc1cc2c(cc1OC)C(=O)C(CC1CCN(C(=S)Nc3ccccc3C)CC1)C2 (stereo not drawn)	inactive

System: Mus musculus
Assay: Anticonvulsant activity in Mus musculus Swiss albino (mouse) assessed as protection against subcutaneous pentylenetetrazole-induced seizures at 300 mg/kg, ip after 0.5 hr
Type: functional, organism-based
Parameters: dose 300 mg/kg
Conditions: not given

Compound	Activity
CCCNC(=S)N1CCC(CC2Cc3cc(OC)c(OC)cc3C2=O)CC1 (stereo not drawn)	inactive

System: Mus musculus
Assay: Anticonvulsant activity in Mus musculus Swiss albino (mouse) assessed as protection against maximal electroshock-induced seizures at 300 mg/kg, ip after 4 hr
Type: functional, organism-based
Parameters: dose 300 mg/kg
Conditions: not given

Compound	Activity
COc1cc2c(cc1OC)C(=O)C(CC1CCN(C(=S)Nc3ccccc3C)CC1)C2 (stereo not drawn)	inactive

System: Mus musculus
Assay: Neurotoxicity in ip dosed Mus musculus Swiss albino (mouse) assessed as minimal motor impairment after 4 hr by rotorod test
Type: toxicity, organism-based
Conditions: in vivo

Compound	MTC
CCCCNC(=S)N1CCC(CC2Cc3cc(OC)c(OC)cc3C2=O)CC1 (stereo not drawn)	300 mg/kg
COc1cc2c(cc1OC)C(=O)C(CC1CCN(C(=S)Nc3ccc(Cl)cc3)CC1)C2 (stereo not drawn)	300 mg/kg
COc1cc2c(cc1OC)C(=O)C(CC1CCN(C(=S)Nc3ccccc3C)CC1)C2 (stereo not drawn)	300 mg/kg

System: Mus musculus
Assay: Neurotoxicity in ip dosed Mus musculus Swiss albino (mouse) assessed as minimal motor impairment after 0.5 hr by rotorod test
Type: toxicity, organism-based
Conditions: in vivo

Compound	MTC
COc1cc2c(cc1OC)C(=O)C(CC1CCN(C(=S)Nc3ccc([N+](=O)[O-])cc3)CC1)C2 (stereo not drawn)	300 mg/kg
COc1cc2c(cc1OC)C(=O)C(CC1CCN(C(=S)Nc3ccccc3Cl)CC1)C2 (stereo not drawn)	300 mg/kg
COc1cc2c(cc1OC)C(=O)C(CC1CCN(C(=S)Nc3ccc(C)cc3)CC1)C2 (stereo not drawn)	300 mg/kg
CCCCNC(=S)N1CCC(CC2Cc3cc(OC)c(OC)cc3C2=O)CC1 (stereo not drawn)	300 mg/kg
CCCNC(=S)N1CCC(CC2Cc3cc(OC)c(OC)cc3C2=O)CC1 (stereo not drawn)	300 mg/kg
COc1cc2c(cc1OC)C(=O)C(CC1CCN(C(=S)Nc3ccc(Cl)cc3)CC1)C2 (stereo not drawn)	100 mg/kg
COc1cc2c(cc1OC)C(=O)C(CC1CCN(C(=S)Nc3ccccc3C)CC1)C2 (stereo not drawn)	100 mg/kg

System: Mus musculus
Assay: Anticonvulsant activity in ip dosed Mus musculus Swiss albino (mouse) assessed as protection against subcutaneous pentylenetetrazole-induced seizures after 4 hr
Type: functional
Conditions: read-out: MED

Compound	minimal effective dose
COc1cc2c(cc1OC)C(=O)C(CC1CCN(C(=S)Nc3ccccc3Cl)CC1)C2 (stereo not drawn)	300 mg/kg
COc1cc2c(cc1OC)C(=O)C(CC1CCN(C(=S)Nc3ccc(C)cc3)CC1)C2 (stereo not drawn)	300 mg/kg
CCCCNC(=S)N1CCC(CC2Cc3cc(OC)c(OC)cc3C2=O)CC1 (stereo not drawn)	300 mg/kg
CCCNC(=S)N1CCC(CC2Cc3cc(OC)c(OC)cc3C2=O)CC1 (stereo not drawn)	300 mg/kg
COc1cc2c(cc1OC)C(=O)C(CC1CCN(C(=S)Nc3ccc(Cl)cc3)CC1)C2 (stereo not drawn)	300 mg/kg

System: Mus musculus
Assay: Anticonvulsant activity in ip dosed Mus musculus Swiss albino (mouse) assessed as protection against subcutaneous pentylenetetrazole-induced seizures after 0.5 hr
Type: functional
Conditions: read-out: MED

Compound	minimal effective dose
COc1cc2c(cc1OC)C(=O)C(CC1CCN(C(=S)Nc3ccc([N+](=O)[O-])cc3)CC1)C2 (stereo not drawn)	100 mg/kg
COc1cc2c(cc1OC)C(=O)C(CC1CCN(C(=S)Nc3ccccc3Cl)CC1)C2 (stereo not drawn)	300 mg/kg
COc1cc2c(cc1OC)C(=O)C(CC1CCN(C(=S)Nc3ccc(C)cc3)CC1)C2 (stereo not drawn)	100 mg/kg
CCCCNC(=S)N1CCC(CC2Cc3cc(OC)c(OC)cc3C2=O)CC1 (stereo not drawn)	100 mg/kg
COc1cc2c(cc1OC)C(=O)C(CC1CCN(C(=S)Nc3ccc(Cl)cc3)CC1)C2 (stereo not drawn)	100 mg/kg
COc1cc2c(cc1OC)C(=O)C(CC1CCN(C(=S)Nc3ccccc3C)CC1)C2 (stereo not drawn)	300 mg/kg

System: Mus musculus
Assay: Anticonvulsant activity in ip dosed Mus musculus Swiss albino (mouse) assessed as protection against maximal electroshock-induced seizures after 0.5 hr
Type: functional
Conditions: read-out: MED

Compound	minimal effective dose
COc1cc2c(cc1OC)C(=O)C(CC1CCN(C(=S)Nc3ccc([N+](=O)[O-])cc3)CC1)C2 (stereo not drawn)	30 mg/kg
COc1cc2c(cc1OC)C(=O)C(CC1CCN(C(=S)Nc3ccccc3Cl)CC1)C2 (stereo not drawn)	100 mg/kg
COc1cc2c(cc1OC)C(=O)C(CC1CCN(C(=S)Nc3ccc(C)cc3)CC1)C2 (stereo not drawn)	30 mg/kg
CCCCNC(=S)N1CCC(CC2Cc3cc(OC)c(OC)cc3C2=O)CC1 (stereo not drawn)	100 mg/kg
CCCNC(=S)N1CCC(CC2Cc3cc(OC)c(OC)cc3C2=O)CC1 (stereo not drawn)	100 mg/kg
COc1cc2c(cc1OC)C(=O)C(CC1CCN(C(=S)Nc3ccc(Cl)cc3)CC1)C2 (stereo not drawn)	30 mg/kg
COc1cc2c(cc1OC)C(=O)C(CC1CCN(C(=S)Nc3ccccc3C)CC1)C2 (stereo not drawn)	100 mg/kg

System: Mus musculus
Assay: Anticonvulsant activity in ip dosed Mus musculus Swiss albino (mouse) assessed as protection against maximal electroshock-induced seizures after 4 hr
Type: functional
Conditions: read-out: MED

Compound	minimal effective dose
COc1cc2c(cc1OC)C(=O)C(CC1CCN(C(=S)Nc3ccc([N+](=O)[O-])cc3)CC1)C2 (stereo not drawn)	300 mg/kg
COc1cc2c(cc1OC)C(=O)C(CC1CCN(C(=S)Nc3ccccc3Cl)CC1)C2 (stereo not drawn)	300 mg/kg
COc1cc2c(cc1OC)C(=O)C(CC1CCN(C(=S)Nc3ccc(C)cc3)CC1)C2 (stereo not drawn)	100 mg/kg
CCCCNC(=S)N1CCC(CC2Cc3cc(OC)c(OC)cc3C2=O)CC1 (stereo not drawn)	100 mg/kg
CCCNC(=S)N1CCC(CC2Cc3cc(OC)c(OC)cc3C2=O)CC1 (stereo not drawn)	300 mg/kg
COc1cc2c(cc1OC)C(=O)C(CC1CCN(C(=S)Nc3ccc(Cl)cc3)CC1)C2 (stereo not drawn)	100 mg/kg
